How the values were obtained:
IRAK4 = target: T1, IRAK4 (Homo sapiens, UniProt Q9NWZ3); test: NanoBRET target engagement assay in HEK-293 cells, IRAK4; format: cell-based; settings: live HEK-293 cells, 1 h
T1 sequence (Q9NWZ3 1-460): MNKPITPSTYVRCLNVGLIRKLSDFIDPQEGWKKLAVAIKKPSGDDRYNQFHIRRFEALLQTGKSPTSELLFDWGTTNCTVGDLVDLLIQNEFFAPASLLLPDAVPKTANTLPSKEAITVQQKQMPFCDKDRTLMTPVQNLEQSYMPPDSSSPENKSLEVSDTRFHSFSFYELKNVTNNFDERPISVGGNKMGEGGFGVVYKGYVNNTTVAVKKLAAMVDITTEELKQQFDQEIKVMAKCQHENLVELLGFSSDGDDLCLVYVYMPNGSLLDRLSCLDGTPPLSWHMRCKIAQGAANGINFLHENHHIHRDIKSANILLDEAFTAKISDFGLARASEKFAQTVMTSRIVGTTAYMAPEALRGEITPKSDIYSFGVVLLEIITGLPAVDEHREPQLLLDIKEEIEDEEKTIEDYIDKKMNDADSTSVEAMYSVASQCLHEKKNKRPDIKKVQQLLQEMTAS
Description: (§1) The NanoBRET assay measures kinase engagement in real time in the context of the intact cell. Unlike the previously described biochemical kinase assay methodology, the NanoBRET assay measures the binding and activity characteristics under equilibrium conditions using full-length kinases in the presence of cellular concentrations of ATP in live, uncompromised cells. As such, the assay provides a more relevant assessment of kinase potency and selectivity that would be expected to be observed in the native cellular environment, where potency is often considerably lower than that observed in the isolated biochemical assays (Vasta, J. D. et al., (2018) Cell Chem. Biol. 25, 206-214). The assay uses a Kinase-NanoLuc® fusion vector expressing a kinase protein to which a luciferase tag has been added, a cell-permeant fluorescent NanoBRET™ tracer, a NanoLuc® substrate, and an extracellular NanoLuc® inhibitor. Upon expression of the luciferase-tagged kinase, cells will produce a strong BRET signal only in the presence of the NanoBRET™ tracer. The extracellular NanoLuc® inhibitor ensures that the BRET signal observed emanates only from live cells. Because the BRET signal has tight distance constraints, addition of the test compound will decrease the BRET signal if the compound competes with the NanoBRET™ tracer for binding to the kinase domain. Under the appropriate tracer conditions established by the manufacturer, quantitative intracellular affinity and relative potency can then be determined using Mass Action model equations.
(§2) HEK-293 cells were purchased from ATCC. FuGENEHD Transfection Reagent, Kinase-NanoLucfusion plasmids, Transfection Carrier DNA, NanoBRETTracers and dilution buffer, NanoBRETNano-Glo Substrate, Extracellular NanoLucInhibitor were obtained from Promega.
(§3) Assays were conducted following Promega assay protocol with some modifications. HEK-293 Cells were transiently transfected with Kinase-NanoLucFusion Vector DNA by FuGENEHD Transfection Reagent. Testing compounds were delivered into 384 well assay plate by Echo 550 (LabcyteInc, Sunnyvale, CA). Transfected cells were harvested and mixed with NanoBRETTracer Reagent and dispensed into 384 well plates and incubated at 37 °C in 5% CO2 cell culture incubator for 1 hour. The NanoBRETNano-Glo Substrate plus Extracellular NanoLucInhibitor Solution were added into the wells of the assay plate and incubated for 2-3 minutes at room temperature. The donor emission wavelength (460 nm) and acceptor emission wavelength (600 nm) were measured in the En Visionplate reader. The BRET Ratios were calculated.
(§4) BRET Ratio=[(Acceptor sample÷Donor sample)−(Acceptor no-tracer control÷Donor no-tracer control)].
(§5) The IC50 values of compounds were calculated with Prism GraphPad program.
(§6) • 1). Cultivate HEK-293 cells (70-80% confluence) appropriately prior to assay. Trypsinize and collect HEK-293 cells. • 2). Prepare lipid:DNA complexes as follows: • a. Prepare a 10 μg/ml solution of DNA in Opti-MEM without serum that consists of the following ratios of carrier DNA and DNA encoding NanoLuc® fusion. 9.0 μg/mL of Transfection Carrier DNA, 1.0 μg/mL of NanoLuc fusion vector DNA and 1 mL of Opti-MEM without phenol red. Mix thoroughly. • b. Add 30 μl of FuGENE HD Transfection Reagent into each milliliter of DNA mixture to form lipid:DNA complex. • c. Mix by inversion 10 times. • d. Incubate at ambient temperature for 20 minutes to allow complexes to form. • 3). In a sterile, conical tube, mix 1 part of lipid:DNA complex with 20 parts of HEK-293 cells in suspension. Mix gently by inversion 5 times. • 4). Dispense cells+lipid:DNA complex into a sterile tissue culture dish and incubate for 22-24 hours.
(§7) Each test compound is delivered from the compound source plate to the wells of 384-well white NBS plate by Echo 550.
(§8) 3. Preparation of Cells with NanoBRET™ Tracer Reagent • 1). Remove medium from dish with transfected HEK-293 cells via aspiration, trypsinize and allow cells to dissociate from the dish. • 2). […]

FLT3 = target: T2, FLT3 (Homo sapiens, UniProt P36888); test: NanoBRET target engagement assay in HEK-293 cells, FLT3; format: cell-based; settings: live HEK-293 cells, 1 h
T2 sequence (P36888 27-993): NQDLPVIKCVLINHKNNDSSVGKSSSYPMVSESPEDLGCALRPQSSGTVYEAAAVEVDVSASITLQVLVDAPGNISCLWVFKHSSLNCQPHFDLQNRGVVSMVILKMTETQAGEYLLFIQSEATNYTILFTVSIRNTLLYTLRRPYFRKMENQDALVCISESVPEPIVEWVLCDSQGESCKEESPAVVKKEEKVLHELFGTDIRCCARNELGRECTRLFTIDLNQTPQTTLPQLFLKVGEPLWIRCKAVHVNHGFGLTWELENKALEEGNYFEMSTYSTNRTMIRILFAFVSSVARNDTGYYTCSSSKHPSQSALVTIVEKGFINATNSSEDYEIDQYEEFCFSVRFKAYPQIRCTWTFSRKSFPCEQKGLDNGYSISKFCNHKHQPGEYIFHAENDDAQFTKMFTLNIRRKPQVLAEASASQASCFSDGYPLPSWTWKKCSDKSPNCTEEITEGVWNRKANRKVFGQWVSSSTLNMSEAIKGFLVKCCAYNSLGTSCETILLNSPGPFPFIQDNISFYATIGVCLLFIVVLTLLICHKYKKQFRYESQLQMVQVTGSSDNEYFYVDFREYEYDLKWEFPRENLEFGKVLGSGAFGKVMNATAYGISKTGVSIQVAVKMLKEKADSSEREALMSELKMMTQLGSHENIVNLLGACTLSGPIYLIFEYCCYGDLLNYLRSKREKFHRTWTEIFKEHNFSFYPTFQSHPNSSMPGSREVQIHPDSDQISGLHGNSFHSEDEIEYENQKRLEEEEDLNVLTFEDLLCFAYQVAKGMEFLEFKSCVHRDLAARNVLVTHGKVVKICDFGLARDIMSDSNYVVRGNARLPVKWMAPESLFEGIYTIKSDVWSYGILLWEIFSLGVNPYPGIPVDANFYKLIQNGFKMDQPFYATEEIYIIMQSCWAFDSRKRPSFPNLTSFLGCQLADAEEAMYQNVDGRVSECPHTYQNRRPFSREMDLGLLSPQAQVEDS
Description: as §1, §2, §3, §4, §5, §6, §7, §8

Structure (SMILES) | IC50 (IRAK4; Table 14) [nM] | IC50 (FLT3; Table 14) [nM] | IC50 (IRAK4; Table 20) [nM] | IC50 (FLT3; Table 20) [nM]
COc1cn2ncc(-c3nc(N[C@H]4CNC[C@@H]4F)c(F)cc3F)c2nc1C(C)(C)O [Compound 12, 2-(3-(3,5-difluoro-6-(((3S,4S)-4-fluoropyrrolidin-3-yl)amino)pyridin-2-yl)-6-methoxypyrazolo[1,5-a]pyrimidin-5-yl)propan-2-ol] | < 0.5 | 321 |  | 
COc1cn2ncc(-c3nc(N[C@H]4CNC[C@@H]4F)ncc3F)c2nc1C(C)(C)O [Compound 5a, 2-(3-(5-fluoro-2-(((3S,4S)-4-fluoropyrrolidin-3-yl)amino)pyrimidin-4-yl)-6-methoxypyrazolo[1,5-a]pyrimidin-5-yl)propan-2-ol] |  |  | 2 | 113

Source: US20260374773A1, “MULTI-CYCLIC IRAK AND FLT3 INHIBITING COMPOUNDS AND USES THEREOF” (CHILDREN'S HOSPITAL MEDICAL CENTER, priority 2022, published 2026)
